Where two headings read alike, the source gives them in different places.
Key:
[1] = system: hematopoietic recovery after cyclophosphamide; test: Hematopoietic recovery after cyclophosphamide, acyl chain length (Example 38); format: in vivo, Balb/C mice; details: day 7; guanosine 5, acyl derivatives 2.5 μmoles/mouse/day i.p.
Procedure: Cyclophosphamide (CP) (275 mg/kg, i.p.) was administered to 70 Balb/C female mice weighing approximately 20 grams each. Twenty-four hours later and each day thereafter for a total of 6 days, mice were given a 0.4 ml i.p injection of either physiological saline (controls), Tween 80 (0.2%), guanosine (5 μmoles/mouse/day in 0.2% Tween 80), or 2.5 μmoles per mouse per day of one of the following acylated derivatives of guanosine in 0.2% Tween 80: triacetylguanosine, octanoylguanosine, lauroylguanosine, or palmitoylguanosine. On day 7 following CP administration all 10 animals from each of the 7 groups were bled, and then sacrificed by cervical dislocation. Spleens were removed and weighed, and complete blood counts performed.

[2] = system: blood cell counts after 5-FU; test: Pretreatment, recovery after 5-fluorouracil (Example 60); format: in vivo, Balb/C mice; details: 7 days after 5-FU
Procedure: (§1) Twelve female Balb/C mice weighing approximately 20 grams each received a 0.4 ml i.p. injection of either N-palmitoylguanine (25 mg/kg/treatment) in a Tween-DMSO vehicle (0.2% Tween-80 and 7.5% DMSO in saline) or vehicle alone one time daily for three days. On the fourth day 5-fluorouracil (5-FU; 150 mg/kg, i.p.) was administered to all twelve animals. On day 7 following 5-FU administration all twelve of these animals were bled and then sacrificed by cervical dislocation. Six untreated mice were also bled and sacrificed to provide data on normal (basal) values. Spleens were removed and weighed, and complete blood cell counts performed.

[3] = system: blood cell counts after cyclophosphamide; test: Recovery after cyclophosphamide (Example 61); format: in vivo, Balb/C mice; details: 7 days after CP
Procedure: as §1, with “five days following a single injection of cyclophosphamide (CP) (250” for “three days. On the fourth day 5-fluorouracil (5-FU; 150”, “i.p.).” for “i.p.) was administered to all twelve animals.”, “CP” for “5-FU”

mouse bone marrow cells = details: cited from earlier work
[4] = system: hematopoietic recovery after cyclophosphamide; test: Hematopoietic recovery after cyclophosphamide (Example 64); format: in vivo, Balb/C mice; details: day 7
Procedure: Fourteen female Balb/C mice weighing approximately 20 grams each received a 0.4 ml i.p. injection of either N-isobutyryldeoxyguanosine (50 mg/kg/treatment) in a Tween vehicle (0.2% Tween-80 in saline) or vehicle alone one time daily for five days following a single injection of cyclophosphamide (CP) (250 mg/kg, i.p.). On day 7 following CP administration all fourteen animals were bled and then sacrificed by cervical dislocation. Spleens were removed and weighed, and complete blood cell counts performed.

[5] = system: Interleukin-3 dependent bone marrow cells; details: 10 micrograms per milliliter
Procedure: (§2) Bone marrow cells were obtained by flushing the femurs of three male B6D2F1 mice. The cells were plated at 5.0×10^5 /ml in MEM plus 10% fetal calf serum and 25 Units/ml of recombinant IL-3 for 24-48 hours. Non-adherent cells were then separated from adherent cells and maintained for an additional twelve days. IL-3 was washed from cells, and cells were plated in MEM plus 10% fetal calf serum in the presence or absence of IL-3 and with or without the addition of palmitoyldeoxyguanosine (10 micrograms per milliliter) or deoxyguanosine (10 micrograms per milliliter). Cells were counted using the trypan blue exclusion method, and the percent of dead cells (trypan blue positive) was determined at 24, 40, 60 and 84 hours following the wash.

[6] = system: Interleukin-3 dependent bone marrow cells; test: cells; details: Mus musculus, Bone marrow cell, read-out: % Dead Cells
Procedure: as §2

[7] = system: human myeloid leukemia cell line (HL-60); details: cited from earlier work
[8] = system: hematopoietic recovery after cyclophosphamide; test: Hematopoietic recovery after cyclophosphamide (Example 37); format: in vivo, Balb/C mice; details: 5 μmoles/mouse/day i.p. 6 days; day 7; vs saline
Procedure: Twenty-four hours later and each day thereafter for a total of 6 days, mice were given a 0.4 ml i.p. injection of either physiological saline (controls), guanine (5 μmoles/mouse/day), or guanosine (5 μmoles/mouse/day). On day 7 all 10 mice in each of the three groups were bled, and then sacrificed by cervical dislocation. Spleens were removed and weighed, and complete blood cell counts performed.

[9] = in presence of post-endotoxin serum

CCCCCCCCCCCC(=O)OC[C@H]1O[C@@H](n2cnc3c(=O)[nH]c(N)nc32)[C@H](O)[C@@H]1O [laurolyguanosine, Lauroylguanosine]
spleen weight [1]: significantly larger spleens

CCCCCCCCCCCCCCCC(=O)Nc1nc2nc[nH]c2c(=O)[nH]1 [NPG, N^2 -Palmitoylguanine]
Lymphocytes ([2]; 25 mg/kg/treatment): 4.5 ± .5 K/μl | Platelets ([2]; 25 mg/kg/treatment): 787 ± 72 K/μl | WBC ([2]; 25 mg/kg/treatment): 4.6 ± .5 K/μl | Spleen ([2]; 25 mg/kg/treatment i.p., 3 days before): 79 ± 3 mg | Neutrophils ([3]; 25 mg/kg/treatment): 5.5 ± .5 K/μl | Platelets ([3]; 25 mg/kg/treatment): 774 ± 734 K/μl | WBC ([3]; 25 mg/kg/treatment): 7.3 ± .6 K/μl | Spleen ([3]; 25 mg/kg/treatment i.p., 5 days): 145 ± 13 mg

Nc1nc2c(ncn2[C@@H]2O[C@@H]3COP(=O)(O)O[C@H]3[C@H]2O)c(=O)[nH]1 [cGMP, 3',5'-cyclic guanosine monophosphate]
number of colonies formed (mouse bone marrow cells; in absence of post-endotoxin serum): no effect | number of colonies formed (mouse bone marrow cells; [9]): increase in the number of colonies formed

CC(C)C(=O)Nc1nc2c(ncn2[C@H]2C[C@H](O)[C@@H](CO)O2)c(=O)[nH]1 [N-isobutyryldeoxyguanosine]
spleen weight ([4]; 50 mg/kg/treatment, control 72.7±2.7, p<.001, in mg (unit assumed)): 116.3±8.0 | lymphocyte counts ([4]; control 1.2±0.2, p<.02): 2.1±0.2 | total neutrophil counts ([4]; control 3.3±0.4, p<.001): 6.6±0.5 | white blood cell counts ([4]; control 4.6±0.5, p<.001): 8.9±0.5

Nc1nc2c(ncn2[C@@H]2O[C@H](COP(=O)(O)O)[C@@H](O)[C@H]2O)c(=O)[nH]1 [5'-guanosine monophosphate]
number of colonies formed (mouse bone marrow cells; [9]): inactive

Nc1nc2c(ncn2[C@H]2C[C@H](O)[C@@H](CO)O2)c(=O)[nH]1 [dG, deoxyguanosine]
prevention of apoptotic cell death due to IL-3 deprivation [5]: did nothing to prevent apoptotic cell death due to IL-3 deprivation | cytotoxicity at 10 µg/mL ([6]; 24 h): 15.5 ± 0.5% | cytotoxicity at 10 µg/mL ([6]; 40 h): 21.5 ± 3.5% | cytotoxicity at 10 µg/mL ([6]; 60 h): 46.3 ± 10.3% | cytotoxicity at 10 µg/mL ([6]; 84 h): 68.3 ± 6%

NC(=O)c1csc([C@@H]2O[C@H](CO)[C@@H](O)[C@H]2O)n1 [tiazofurin, reference compound]
conversion of immature blast cells into mature granulocytes ([7]; HL-60 in vitro): induced

Nc1nc2nc[nH]c2c(=O)[nH]1 [guanine]
Neutrophils [8]: significantly more | spleen weight [8]: significantly heavier spleens | total white blood cells [8]: significantly more | effect on induced maturation of HL-60 cells ([7]; HL-60 with inducing agents): prevented their induced maturation into functional neutrophils
